According to ChEMBL document CHEMBL4373723 (J Med Chem, 2019):
Bridge positions count the residues as written; N and C are the ends. Square brackets hold non-standard residues; d marks the D form. Peptide text beside a SMILES is read from it. I, II: the chains in the order shown. Phe(3-Cl) = N[C@@H](Cc1cccc(Cl)c1)C(=O)O; Phe(4-Cl) = N[C@@H](Cc1ccc(Cl)cc1)C(=O)O; Cha = N[C@@H](CC1CCCCC1)C(=O)O; hLeu = CC(C)CC[C@H](N)C(=O)O; Nle = CCCC[C@H](N)C(=O)O

Columns and labels:
Frizzled-7 [1] = biological target: T1, Frizzled-7 (Homo sapiens, UniProt O75084); assay: biochemical; format: cell-based, CHO; details: read-out: Kd
Frizzled-7 [2] = biological target: T1, Frizzled-7; details: CHO
Description: Binding affinity to recombinant human Frizzled-7 (Gln33 to Leu185 residues)/human IgG1 chimeric protein expressed in CHO cells assessed as association rate constant by SPR assay

Frizzled-7 [3] = biological target: T1, Frizzled-7; format: cell-based; details: cho

Structure (SMILES)	Kd (Frizzled-7 [1])	Ka (Frizzled-7 [2])	Kd (Frizzled-7 [3])	Kd (Frizzled-7 [1]; cho)
CSCC[C@H](NC(=O)[C@@H](NC(=O)[C@H](Cc1cnc[nH]1)NC(=O)[C@H](CSSC[C@H](NC(=O)[C@H](Cc1c[nH]c2ccccc12)NC(=O)[C@H](Cc1ccccc1)NC(=O)[C@H](CCC(=O)O)NC(=O)[C@H](CC(C)C)NC(=O)[C@H](CC(=O)O)NC(=O)[C@H](CC(=O)O)NC(=O)[C@@H](NC(C)=O)[C@@H](C)O)C(=O)N[C@@H](Cc1cnc[nH]1)C(=O)N[C@H](C(=O)N[C@@H](CCSC)C(=O)N[C@@H](Cc1ccc(O)cc1)C(N)=O)C(C)C)NC(=O)[C@H](Cc1c[nH]c2ccccc12)NC(=O)[C@H](Cc1ccccc1)NC(=O)[C@H](CCC(=O)O)NC(=O)[C@H](CC(C)C)NC(=O)[C@H](CC(=O)O)NC(=O)[C@H](CC(=O)O)NC(=O)[C@@H](NC(C)=O)[C@@H](C)O)C(C)C)C(=O)N[C@@H](Cc1ccc(O)cc1)C(N)=O (I: Ac-TDDLEFWCHVMY-NH2 / II: Ac-TDDLEFWCHVMY-NH2; disulfide I:8-II:8)	140 pM	51.5 ×10⁵ /M/s	0.72 ×10⁻³ /s	–
CC[C@H](C)[C@H](NC(=O)[C@H](Cc1cnc[nH]1)NC(=O)[C@H](CSSC[C@H](NC(=O)[C@H](Cc1c[nH]c2ccccc12)NC(=O)[C@H](Cc1ccccc1)NC(=O)[C@H](CCC(=O)O)NC(=O)[C@H](CC(C)C)NC(=O)[C@H](CC(=O)O)NC(=O)[C@H](CC(=O)O)NC(=O)[C@H](CO)NC(C)=O)C(=O)N[C@@H](Cc1cnc[nH]1)C(=O)N[C@H](C(=O)N[C@@H](CCSC)C(=O)N[C@@H](Cc1ccc(O)cc1)C(N)=O)[C@@H](C)CC)NC(=O)[C@H](Cc1c[nH]c2ccccc12)NC(=O)[C@H](Cc1ccccc1)NC(=O)[C@H](CCC(=O)O)NC(=O)[C@H](CC(C)C)NC(=O)[C@H](CC(=O)O)NC(=O)[C@H](CC(=O)O)NC(=O)[C@H](CO)NC(C)=O)C(=O)N[C@@H](CCSC)C(=O)N[C@@H](Cc1ccc(O)cc1)C(N)=O (I: Ac-SDDLEFWCHIMY-NH2 / II: Ac-SDDLEFWCHIMY-NH2; disulfide I:8-II:8)	180 pM	55.1 ×10⁵ /M/s	0.96 ×10⁻³ /s	–
CSCC[C@H](NC(=O)[C@@H](CC1CCC1)NC(=O)[C@H](Cc1cnc[nH]1)NC(=O)[C@H](CSSC[C@H](NC(=O)[C@H](Cc1c[nH]c2ccccc12)NC(=O)[C@H](Cc1ccccc1)NC(=O)[C@H](CCC(=O)O)NC(=O)[C@H](CC(C)C)NC(=O)[C@H](CC(=O)O)NC(=O)[C@H](CC(=O)O)NC(=O)[C@H](CO)NC(C)=O)C(=O)N[C@@H](Cc1cnc[nH]1)C(=O)N[C@H](CC1CCC1)C(=O)N[C@@H](CCSC)C(=O)N[C@@H](Cc1ccc(O)cc1)C(N)=O)NC(=O)[C@H](Cc1c[nH]c2ccccc12)NC(=O)[C@H](Cc1ccccc1)NC(=O)[C@H](CCC(=O)O)NC(=O)[C@H](CC(C)C)NC(=O)[C@H](CC(=O)O)NC(=O)[C@H](CC(=O)O)NC(=O)[C@H](CO)NC(C)=O)C(=O)N[C@@H](Cc1ccc(O)cc1)C(N)=O	–	53 ×10⁵ /M/s	2.13 ×10⁻³ /s	400 pM
CSCC[C@H](NC(=O)[C@@H](CC1CCCC1)NC(=O)[C@H](Cc1cnc[nH]1)NC(=O)[C@H](CSSC[C@H](NC(=O)[C@H](Cc1c[nH]c2ccccc12)NC(=O)[C@H](Cc1ccccc1)NC(=O)[C@H](CCC(=O)O)NC(=O)[C@H](CC(C)C)NC(=O)[C@H](CC(=O)O)NC(=O)[C@H](CC(=O)O)NC(=O)[C@H](CO)NC(C)=O)C(=O)N[C@@H](Cc1cnc[nH]1)C(=O)N[C@H](CC1CCCC1)C(=O)N[C@@H](CCSC)C(=O)N[C@@H](Cc1ccc(O)cc1)C(N)=O)NC(=O)[C@H](Cc1c[nH]c2ccccc12)NC(=O)[C@H](Cc1ccccc1)NC(=O)[C@H](CCC(=O)O)NC(=O)[C@H](CC(C)C)NC(=O)[C@H](CC(=O)O)NC(=O)[C@H](CC(=O)O)NC(=O)[C@H](CO)NC(C)=O)C(=O)N[C@@H](Cc1ccc(O)cc1)C(N)=O	–	30.4 ×10⁵ /M/s	44.1 ×10⁻³ /s	14500 pM
CCCC[C@H](NC(=O)[C@H](CC(=O)O)NC(=O)[C@H](CC(=O)O)NC(=O)[C@H](CO)NC(C)=O)C(=O)N[C@@H](CCC(=O)O)C(=O)N[C@@H](Cc1ccccc1)C(=O)N[C@@H](Cc1c[nH]c2ccccc12)C(=O)N[C@@H](CSSC[C@H](NC(=O)[C@H](Cc1c[nH]c2ccccc12)NC(=O)[C@H](Cc1ccccc1)NC(=O)[C@H](CCC(=O)O)NC(=O)[C@H](CCCC)NC(=O)[C@H](CC(=O)O)NC(=O)[C@H](CC(=O)O)NC(=O)[C@H](CO)NC(C)=O)C(=O)N[C@@H](Cc1cnc[nH]1)C(=O)N[C@H](C(=O)N[C@@H](CCSC)C(=O)N[C@@H](Cc1ccc(O)cc1)C(N)=O)C(C)C)C(=O)N[C@@H](Cc1cnc[nH]1)C(=O)N[C@H](C(=O)N[C@@H](CCSC)C(=O)N[C@@H](Cc1ccc(O)cc1)C(N)=O)C(C)C (I: Ac-SDD[Nle]EFWCHVMY-NH2 / II: Ac-SDD[Nle]EFWCHVMY-NH2; disulfide I:8-II:8)	5400 pM	42.8 ×10⁵ /M/s	23.1 ×10⁻³ /s	–
CSCC[C@H](NC(=O)[C@@H](NC(=O)[C@H](Cc1cnc[nH]1)NC(=O)[C@H](CSSC[C@H](NC(=O)[C@H](Cc1c[nH]c2ccccc12)NC(=O)[C@H](Cc1ccccc1)NC(=O)[C@H](CCC(=O)O)NC(=O)[C@H](CC1CCCCC1)NC(=O)[C@H](CC(=O)O)NC(=O)[C@H](CC(=O)O)NC(=O)[C@H](CO)NC(C)=O)C(=O)N[C@@H](Cc1cnc[nH]1)C(=O)N[C@H](C(=O)N[C@@H](CCSC)C(=O)N[C@@H](Cc1ccc(O)cc1)C(N)=O)C(C)C)NC(=O)[C@H](Cc1c[nH]c2ccccc12)NC(=O)[C@H](Cc1ccccc1)NC(=O)[C@H](CCC(=O)O)NC(=O)[C@H](CC1CCCCC1)NC(=O)[C@H](CC(=O)O)NC(=O)[C@H](CC(=O)O)NC(=O)[C@H](CO)NC(C)=O)C(C)C)C(=O)N[C@@H](Cc1ccc(O)cc1)C(N)=O (I: Ac-SDD[Cha]EFWCHVMY-NH2 / II: Ac-SDD[Cha]EFWCHVMY-NH2; disulfide I:8-II:8)	13700 pM	56.7 ×10⁵ /M/s	75.1 ×10⁻³ /s	–
CSCC[C@H](NC(=O)[C@@H](NC(=O)[C@H](Cc1cnc[nH]1)NC(=O)[C@H](CSSC[C@H](NC(=O)[C@H](Cc1c[nH]c2ccccc12)NC(=O)[C@H](Cc1ccccc1)NC(=O)[C@H](CCC(=O)O)NC(=O)[C@H](CC(C)C)NC(=O)[C@H](CC(=O)O)NC(=O)[C@H](CC(=O)O)NC(=O)[C@H](CO)NC(C)=O)C(=O)N[C@@H](Cc1cnc[nH]1)C(=O)N[C@H](C(=O)N[C@@H](CCSC)C(=O)N[C@@H](Cc1ccc(Cl)cc1)C(N)=O)C(C)C)NC(=O)[C@H](Cc1c[nH]c2ccccc12)NC(=O)[C@H](Cc1ccccc1)NC(=O)[C@H](CCC(=O)O)NC(=O)[C@H](CC(C)C)NC(=O)[C@H](CC(=O)O)NC(=O)[C@H](CC(=O)O)NC(=O)[C@H](CO)NC(C)=O)C(C)C)C(=O)N[C@@H](Cc1ccc(Cl)cc1)C(N)=O (I: Ac-SDDLEFWCHVM[Phe(4-Cl)]-NH2 / II: Ac-SDDLEFWCHVM[Phe(4-Cl)]-NH2; disulfide I:8-II:8)	880 pM	9.3 ×10⁵ /M/s	0.82 ×10⁻³ /s	–
CSCC[C@H](NC(=O)[C@@H](NC(=O)[C@H](Cc1cnc[nH]1)NC(=O)[C@H](CSSC[C@H](NC(=O)[C@H](Cc1c[nH]c2ccccc12)NC(=O)[C@H](CC(C)C)NC(=O)[C@H](CCC(=O)O)NC(=O)[C@H](CC(C)C)NC(=O)[C@H](CC(=O)O)NC(=O)[C@H](CC(=O)O)NC(=O)[C@H](CO)NC(C)=O)C(=O)N[C@@H](Cc1cnc[nH]1)C(=O)N[C@H](C(=O)N[C@@H](CCSC)C(=O)N[C@@H](Cc1ccc(O)cc1)C(N)=O)C(C)C)NC(=O)[C@H](Cc1c[nH]c2ccccc12)NC(=O)[C@H](CC(C)C)NC(=O)[C@H](CCC(=O)O)NC(=O)[C@H](CC(C)C)NC(=O)[C@H](CC(=O)O)NC(=O)[C@H](CC(=O)O)NC(=O)[C@H](CO)NC(C)=O)C(C)C)C(=O)N[C@@H](Cc1ccc(O)cc1)C(N)=O (I: Ac-SDDLELWCHVMY-NH2 / II: Ac-SDDLELWCHVMY-NH2; disulfide I:8-II:8)	79 pM	76.5 ×10⁵ /M/s	0.6 ×10⁻³ /s	–
CSCC[C@H](NC(=O)[C@@H](NC(=O)[C@H](Cc1cnc[nH]1)NC(=O)[C@H](CSSC[C@H](NC(=O)[C@H](Cc1c[nH]c2ccccc12)NC(=O)[C@H](Cc1ccccc1)NC(=O)[C@H](CCC(=O)O)NC(=O)[C@H](CCC(C)C)NC(=O)[C@H](CC(=O)O)NC(=O)[C@H](CC(=O)O)NC(=O)[C@H](CO)NC(C)=O)C(=O)N[C@@H](Cc1cnc[nH]1)C(=O)N[C@H](C(=O)N[C@@H](CCSC)C(=O)N[C@@H](Cc1ccc(O)cc1)C(N)=O)C(C)C)NC(=O)[C@H](Cc1c[nH]c2ccccc12)NC(=O)[C@H](Cc1ccccc1)NC(=O)[C@H](CCC(=O)O)NC(=O)[C@H](CCC(C)C)NC(=O)[C@H](CC(=O)O)NC(=O)[C@H](CC(=O)O)NC(=O)[C@H](CO)NC(C)=O)C(C)C)C(=O)N[C@@H](Cc1ccc(O)cc1)C(N)=O (I: Ac-SDD[hLeu]EFWCHVMY-NH2 / II: Ac-SDD[hLeu]EFWCHVMY-NH2; disulfide I:8-II:8)	115000 pM	10.9 ×10⁵ /M/s	123.5 ×10⁻³ /s	–
CSCC[C@H](NC(=O)[C@@H](NC(=O)[C@H](Cc1cnc[nH]1)NC(=O)[C@H](CSSC[C@H](NC(=O)[C@H](Cc1c[nH]c2ccccc12)NC(=O)[C@H](Cc1cccc(Cl)c1)NC(=O)[C@H](CCC(=O)O)NC(=O)[C@H](CC(C)C)NC(=O)[C@H](CC(=O)O)NC(=O)[C@H](CC(=O)O)NC(=O)[C@H](CO)NC(C)=O)C(=O)N[C@@H](Cc1cnc[nH]1)C(=O)N[C@H](C(=O)N[C@@H](CCSC)C(=O)N[C@@H](Cc1ccc(O)cc1)C(N)=O)C(C)C)NC(=O)[C@H](Cc1c[nH]c2ccccc12)NC(=O)[C@H](Cc1cccc(Cl)c1)NC(=O)[C@H](CCC(=O)O)NC(=O)[C@H](CC(C)C)NC(=O)[C@H](CC(=O)O)NC(=O)[C@H](CC(=O)O)NC(=O)[C@H](CO)NC(C)=O)C(C)C)C(=O)N[C@@H](Cc1ccc(O)cc1)C(N)=O (I: Ac-SDDLE[Phe(3-Cl)]WCHVMY-NH2 / II: Ac-SDDLE[Phe(3-Cl)]WCHVMY-NH2; disulfide I:8-II:8)	100 pM	66.3 ×10⁵ /M/s	0.63 ×10⁻³ /s	–
